Experimental data: ChEMBL document CHEMBL5550171, “Poly (ADP-ribose) polymerase (PARP) inhibitors as anticancer agents: An outlook on clinical progress, synthetic strategies, biological activity, and structure-activity relationship” (Eur J Med Chem, 2024)

Columns and labels:
[1] = test system: MCF7; assay: Cytotoxicity against human MCF7 cells assessed as reduction in cell viability measured for 48 hrs by MTT assay; assay type: functional, cell-based; conditions: MCF7, 48 h
[2] = test system: MDA-MB-231; assay: Cytotoxicity against human MDA-MB-231 cells assessed as reduction in cell viability measured for 48 hrs by MTT assay; assay type: functional, cell-based; conditions: MDA-MB-231, 48 h
[3] = molecular target: Protein mono-ADP-ribosyltransferase PARP3 (Homo sapiens, UniProt Q9Y6F1); assay: Inhibition of PARP3 (unknown origin)
Protein mono-ADP-ribosyltransferase PARP3, sequence (Q9Y6F1 whole entry): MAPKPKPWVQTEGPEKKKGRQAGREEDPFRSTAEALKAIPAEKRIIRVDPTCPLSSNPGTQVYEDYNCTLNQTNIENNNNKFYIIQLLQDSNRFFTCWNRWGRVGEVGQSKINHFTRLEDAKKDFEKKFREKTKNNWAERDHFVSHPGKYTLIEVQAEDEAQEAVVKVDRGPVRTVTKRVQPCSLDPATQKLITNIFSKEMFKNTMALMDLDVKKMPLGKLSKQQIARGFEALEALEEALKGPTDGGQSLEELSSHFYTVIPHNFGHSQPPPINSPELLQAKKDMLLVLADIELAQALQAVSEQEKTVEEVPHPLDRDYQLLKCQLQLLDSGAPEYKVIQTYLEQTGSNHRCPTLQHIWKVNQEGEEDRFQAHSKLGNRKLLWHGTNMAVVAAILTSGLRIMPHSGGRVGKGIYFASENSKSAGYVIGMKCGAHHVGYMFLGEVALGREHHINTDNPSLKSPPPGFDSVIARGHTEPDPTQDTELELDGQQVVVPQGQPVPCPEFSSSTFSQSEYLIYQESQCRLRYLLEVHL

[4] = test system: MCF7; assay: Cytotoxicity against human MCF7 cells assessed as reduction in cell growth incubated for 72 hrs by alamar blue reagent based analysis; assay type: functional; conditions: MCF7, 72 h
[5] = test system: MDA-MB-231; assay: Cytotoxicity against human MDA-MB-231 cells assessed as reduction in cell growth incubated for 72 hrs by alamar blue reagent based analysis; assay type: functional; conditions: MDA-MB-231, 72 h
[6] = test system: Panel NCI-60 (60 carcinoma cell lines); assay: Cytotoxicity against human Panel NCI-60 (60 carcinoma cell lines); assay type: functional, cell-based
[7] = test system: HCT-116; assay: Cytotoxicity against human HCT-116 cells assessed as reduction in cell growth incubated for 96 hrs by MTT assay; assay type: functional, cell-based; conditions: HCT-116, 96 h
[8] = test system: MDA-MB-157; assay: Anticancer activity against human MDA-MB-157 cells assessed as cell growth inhibition; assay type: functional, cell-based
[9] = test system: HCC1395; assay: Anticancer activity against human HCC1395 cells assessed as cell growth inhibition; assay type: functional, cell-based
[10] = test system: MCF7; assay: Anticancer activity against human MCF7 cells assessed as reduction in cell viability; assay type: functional, cell-based
[11] = Cytotoxicity against African green monkey Vero cells; assay type: toxicity, cell-based, Chlorocebus sabaeus
[12] = test system: Caco-2; assay: Cytotoxicity against human Caco-2 cells assessed as inhibition of cell growth incubated for 72 hrs by CCK-8 assay; assay type: functional, cell-based; conditions: Caco-2, 72 h
[13] = test system: MDA-MB-231; assay: Cytotoxicity against human MDA-MB-231 cells assessed as reduction in cell viability incubated for 24 hrs by MTS assay; assay type: functional, cell-based; conditions: MDA-MB-231, 24 h
[14] = test system: MCF7; assay: Cytotoxicity against human MCF7 cells assessed as reduction in cell viability incubated for 24 hrs by MTS assay; assay type: functional, cell-based; conditions: MCF7, 24 h
[15] = Microsomal stability in human liver microsomes assessed as half life measured for 48 hrs by LC-MS/MS analysis; assay type: ADME, Microsome
[16] = Microsomal stability in rat liver microsomes assessed as half life measured for 48 hrs by LC-MS/MS analysis; assay type: ADME, Microsome
[17] = molecular target: T1, Poly [ADP-ribose] polymerase 2 (Homo sapiens, UniProt Q9UGN5); assay: Inhibition of PARP2 (unknown origin) at 10 uM relative to control
T1 sequence (Q9UGN5 whole entry): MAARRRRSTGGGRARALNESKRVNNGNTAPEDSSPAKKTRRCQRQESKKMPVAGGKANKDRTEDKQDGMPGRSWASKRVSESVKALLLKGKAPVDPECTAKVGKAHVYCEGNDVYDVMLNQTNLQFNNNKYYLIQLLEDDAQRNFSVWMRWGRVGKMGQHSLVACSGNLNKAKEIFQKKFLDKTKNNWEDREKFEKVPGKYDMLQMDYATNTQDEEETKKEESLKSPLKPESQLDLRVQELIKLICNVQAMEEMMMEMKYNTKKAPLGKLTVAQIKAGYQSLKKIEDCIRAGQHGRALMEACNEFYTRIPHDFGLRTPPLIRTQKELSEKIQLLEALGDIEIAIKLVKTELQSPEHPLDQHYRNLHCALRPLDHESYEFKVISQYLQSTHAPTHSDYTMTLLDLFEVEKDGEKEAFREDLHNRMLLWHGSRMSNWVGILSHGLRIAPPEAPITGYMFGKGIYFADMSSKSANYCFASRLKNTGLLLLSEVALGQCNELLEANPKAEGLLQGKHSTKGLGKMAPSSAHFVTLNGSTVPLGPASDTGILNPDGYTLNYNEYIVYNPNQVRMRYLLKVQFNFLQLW

[18] = molecular target: T2, Poly [ADP-ribose] polymerase 1 (Homo sapiens, UniProt P09874); assay: Inhibition of PARP1 (unknown origin) at 10 uM relative to control
T2 sequence (P09874 whole entry): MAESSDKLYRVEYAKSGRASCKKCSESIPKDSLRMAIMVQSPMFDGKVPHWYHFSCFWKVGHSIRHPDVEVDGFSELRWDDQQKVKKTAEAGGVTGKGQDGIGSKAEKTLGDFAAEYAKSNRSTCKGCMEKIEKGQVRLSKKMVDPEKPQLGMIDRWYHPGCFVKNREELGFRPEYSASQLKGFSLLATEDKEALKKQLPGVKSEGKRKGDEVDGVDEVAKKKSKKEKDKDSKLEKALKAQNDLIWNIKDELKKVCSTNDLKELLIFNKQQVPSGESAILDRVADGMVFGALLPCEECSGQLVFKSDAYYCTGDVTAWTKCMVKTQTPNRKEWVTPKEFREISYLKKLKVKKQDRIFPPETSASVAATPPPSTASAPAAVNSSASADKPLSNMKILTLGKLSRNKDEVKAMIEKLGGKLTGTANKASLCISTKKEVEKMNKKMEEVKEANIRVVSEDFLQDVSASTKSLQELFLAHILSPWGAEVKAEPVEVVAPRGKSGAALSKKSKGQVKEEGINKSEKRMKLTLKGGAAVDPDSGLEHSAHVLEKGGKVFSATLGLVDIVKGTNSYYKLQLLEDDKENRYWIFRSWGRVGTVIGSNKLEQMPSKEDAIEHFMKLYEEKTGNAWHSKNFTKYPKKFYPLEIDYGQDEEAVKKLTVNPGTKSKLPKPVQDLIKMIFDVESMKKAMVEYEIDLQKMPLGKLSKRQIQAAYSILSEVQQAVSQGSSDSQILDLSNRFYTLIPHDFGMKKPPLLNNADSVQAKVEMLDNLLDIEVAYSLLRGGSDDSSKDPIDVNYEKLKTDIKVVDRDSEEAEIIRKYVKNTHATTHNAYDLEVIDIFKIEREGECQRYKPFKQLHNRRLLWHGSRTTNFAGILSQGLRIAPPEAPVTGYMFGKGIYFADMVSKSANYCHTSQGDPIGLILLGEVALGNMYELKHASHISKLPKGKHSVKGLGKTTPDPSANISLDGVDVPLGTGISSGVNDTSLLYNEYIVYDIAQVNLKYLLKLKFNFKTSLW

[19] = molecular target: T1, Poly [ADP-ribose] polymerase 2; assay: Inhibition of PARP2 (unknown origin) using biotinylated NAD+ as substrate by luminescence assay
[20] = test system: MDA-MB-436; assay: Cytotoxicity against human MDA-MB-436 cells assessed as reduction in cell viability incubated for 24 hrs by MTS assay; assay type: functional, cell-based; conditions: MDA-MB-436, 24 h
[21] = molecular target: T2, Poly [ADP-ribose] polymerase 1; assay: Inhibition of PARP1 (unknown origin) using biotinylated NAD+ as substrate by luminescence assay
[22] = test system: MDA-MB-436; assay: Cytotoxicity against human MDA-MB-436 cells; assay type: functional, cell-based
[23] = test system: MCF7; assay: Antiproliferative activity against human MCF7 cells assessed as reduction in cell growth; assay type: functional, cell-based
[24] = test system: SK-OV-3; assay: Inhibition of colony formation in human SK-OV-3 cells at 10 uM by crystal violet staining assay; assay type: functional
[25] = test system: MDA-MB-231; assay: Antiproliferative activity against human MDA-MB-231 cells assessed as reduction in cell growth; assay type: functional, cell-based
[26] = test system: HCT-116; assay: Antiproliferative activity against human HCT-116 cells assessed as reduction in cell growth; assay type: functional, cell-based
[27] = test system: A2780; assay: Antiproliferative activity against human A2780 cells assessed as reduction in cell growth; assay type: functional, cell-based
[28] = test system: SK-OV-3; assay: Antiproliferative activity against human SK-OV-3 cells assessed as reduction in cell growth; assay type: functional, cell-based
[29] = molecular target: T2, Poly [ADP-ribose] polymerase 1; assay: Inhibition of human recombinant PARP1 at 10 uM relative to control
[30] = molecular target: T2, Poly [ADP-ribose] polymerase 1; assay: Inhibition of human recombinant PARP1 at 100 uM relative to control
[31] = molecular target: T2, Poly [ADP-ribose] polymerase 1; assay: Inhibition of human recombinant PARP1 at 0.01 uM relative to control
[32] = molecular target: T2, Poly [ADP-ribose] polymerase 1; assay: Inhibition of human recombinant PARP1 at 0.1 uM relative to control
[33] = Antiproliferative activity against human MCF10A cells assessed as inhibition of cell growth incubated for 72 hrs by alamar blue assay; assay type: functional, cell-based; conditions: MCF10AT1, 72 h
[34] = molecular target: T2, Poly [ADP-ribose] polymerase 1; assay: Inhibition of human recombinant PARP1 at 1 uM relative to control
[35] = test system: MCF7; assay: Antiproliferative activity against human MCF7 cells assessed as reduction in cell viability at 10 uM incubated for 48 hrs by MTT assay; assay type: functional
[36] = test system: MCF7; assay: Antiproliferative activity against human MCF7 cells assessed as reduction in cell viability at 10 uM incubated for […] by MTT assay; assay type: functional
[37] = test system: Jurkat; assay: Antiproliferative activity against human Jurkat cells assessed as reduction in cell viability incubated for 72 hrs by MTT assay; assay type: functional, cell-based
[38] = test system: KB 3-1; assay: Antiproliferative activity against human KB 3-1 cells assessed as reduction in cell viability incubated for 72 hrs by MTT assay; assay type: functional, cell-based; conditions: KB 3-1, 72 h
[39] = test system: SK-OV-3; assay: Antiproliferative activity against human SK-OV-3 cells assessed as reduction in cell viability incubated for 72 hrs by MTT assay; assay type: functional, cell-based; conditions: SK-OV-3, 72 h
[40] = test system: MCF7; assay: Antiproliferative activity against human MCF7 cells assessed as reduction in cell viability incubated for 72 hrs by MTT assay; assay type: functional, cell-based; conditions: MCF7, 72 h
[41] = molecular target: T1, Poly [ADP-ribose] polymerase 2; assay: Inhibition of PARP2 (unknown origin)
[42] = Cytotoxicity against mouse BALB/3T3 cells assessed as reduction in cell viability incubated for 72 hrs by MTT assay; assay type: toxicity, cell-based
[43] = test system: MCF7; assay: Cytotoxicity against human MCF7 cells harbouring BRCA1 assessed as inhibition of cell growth measured after 72 hrs by MTT assay; assay type: functional, cell-based; conditions: MCF7, 72 h
[44] = test system: RPMI-8226; assay: Growth inhibition of human RPMI-8226 cells; assay type: functional
[45] = test system: SNB-75; assay: Growth inhibition of human SNB-75 cells; assay type: functional
[46] = molecular target: T2, Poly [ADP-ribose] polymerase 1; assay: Inhibition of PARP1 (unknown origin)
[47] = test system: A549; assay: Antiproliferative activity against human A549 cells assessed as reduction in cell viability incubated for 72 hrs by MTT assay; assay type: functional, cell-based; conditions: A549, 72 h
[48] = test system: HCT-116; assay: Antiproliferative activity against human HCT-116 cells assessed as reduction in cell viability incubated for 72 hrs by MTT assay; assay type: functional, cell-based; conditions: HCT-116, 72 h
[49] = test system: NCI-H226; assay: Growth inhibition of human NCI-H226 cells; assay type: functional
[50] = test system: MCF7; assay: Antiproliferative activity against human MCF7 cells assessed as reduction in cell viability at 10 uM incubated for 24 hrs by MTT assay; assay type: functional
[51] = test system: IGROV-1; assay: Growth inhibition of human IGROV-1 cells; assay type: functional
[52] = test system: LOX IMVI; assay: Growth inhibition of human LOX IMVI cells; assay type: functional
[53] = test system: MDA-MB-468; assay: Growth inhibition of human MDA-MB-468 cells; assay type: functional
[54] = test system: HCT-116; assay: Growth inhibition of human HCT-116 cells; assay type: functional
[55] = test system: MX1; assay: Antiproliferative activity against human MX1 cells assessed as cell growth inhibition; assay type: functional, cell-based
[56] = test system: MCF7; assay: Antiproliferative activity against human MCF7 cells assessed as cell growth inhibition; assay type: functional, cell-based
[57] = test system: HCT-116; assay: Antiproliferative activity against human HCT-116 cells assessed as reduction in cell growth incubated for 24 hrs by MTT assay; assay type: functional, cell-based; conditions: HCT-116, 24 h
[58] = test system: MCF7; assay: Antiproliferative activity against human MCF7 cells assessed as reduction in cell growth incubated for 24 hrs by MTT assay; assay type: functional, cell-based; conditions: MCF7, 24 h
[59] = test system: HepG2; assay: Antiproliferative activity against human HepG2 cells assessed as reduction in cell growth incubated for 24 hrs by MTT assay; assay type: functional, cell-based; conditions: HepG2, 24 h
[60] = test system: A549; assay: Antiproliferative activity against human A549 cells assessed as reduction in cell growth incubated for 24 hrs by MTT assay; assay type: functional, cell-based; conditions: A549, 24 h

O=C(CCN1CCOCC1)Nc1ccc(-c2nc3cc(Cl)ccc3o2)cc1
IC50 [1]: 6.05 µM
IC50 [2]: 6.14 µM
IC50 [3]: 0.07 µM

COc1ccc(Cc2nnc(-c3cccc(-c4ccnc(F)c4C)c3)o2)cc1OC
IC50 [4]: 15.3 µM
IC50 [5]: 19.2 µM

CC(=O)c1nnn(-c2ccc(Br)cc2)c1C
IC50 [6]: 0.018 µM

Nc1nc(S)nc2c1Oc1[nH]c(=O)[nH]c(=O)c1C2c1cccs1 (stereo not given)
IC50 [7]: 9.31 µM

Cn1ncnc1[C@H]1c2n[nH]c(=O)c3cc(F)cc(c23)N[C@@H]1c1ccc(F)cc1 [TALAZOPARIB]
IC50 [8]: 0.00037 µM
IC50 [9]: 0.00046 µM

CCOC(=O)CO/N=C(\N)c1ccc(C)cc1
IC50 [10]: 0.32 µM
IC50 [11]: 0.48 µM
IC50 [12]: 0.4 µM

NC(=O)c1cccc2[nH]c(C3CCN(C4CCC(F)(F)CC4)CC3)nc12
IC50 [13]: 96.8 µM
IC50 [14]: 60.8 µM
half-life [15]: 4.38 h
half-life [16]: > 16.7 h
inhibition [17]: 90.8%
inhibition [18]: 47.9%
IC50 [19]: 0.00158 µM
IC50 [20]: 28.3 µM
IC50 [21]: 0.0043 µM

COc1ccc(/C=C2\CC3(CC4C2OC(=O)C(C(C)=O)C4c2ccc(OC)cc2)OCCO3)cc1 (stereo not given)
IC50 [22]: 7.47 µM

COc1ccc(/C=C2\CC3(CC4C2=NN(C(N)=S)C4c2ccc(OC)cc2)OCCO3)cc1 (stereo not given)
IC50 [22]: 0.67 µM

CCNC(=S)N/N=C\c1ccc(-c2nc3c(oc4ccccc43)c(=O)[nH]2)cc1
IC50 [23]: 38.1 µM
inhibition at 10 µM [24]: 78.1%
IC50 [25]: 47.6 µM
IC50 [26]: 8.75 µM
IC50 [27]: 24.8 µM
IC50 [28]: 4.98 µM

COc1ccc(CSc2nccc(OCC(=O)N3CCN(c4cccc(Cl)c4Cl)CC3)n2)cc1
inhibition [29]: 53%
inhibition [30]: 82.1%
inhibition [31]: 1.3%
inhibition [32]: 2%
IC50 [33]: 18.2 µM
inhibition [34]: 20.6%

CCOC(=O)c1ccc(NC(=O)CS/C(=C\C(=O)c2sc(Nc3ccccn3)nc2C)c2ccccc2F)cc1
Activity [35]: 43%
Activity [36]: 90%
IC50 [37]: 5.36 µM
IC50 [38]: 7.63 µM
IC50 [39]: 7.87 µM
IC50 [40]: 2.79 µM
IC50 [41]: 0.72 µM
IC50 at 72 h [42]: 7.79 µM
IC50 [43]: 0.7 µM
GI50 [44]: 8.29 µM
GI50 [45]: 3.58 µM
IC50 [46]: 2.28 µM
IC50 [47]: 8.05 µM
IC50 [48]: 6.11 µM
GI50 [49]: 2.52 µM
Activity [50]: 19.9%
GI50 [51]: 12.1 µM
GI50 [52]: 0.312 µM
GI50 [53]: 4.24 µM
GI50 [54]: 23 µM

O=C1NCC(c2ccc(-c3ccc(C(F)(F)F)cc3)cc2)Nc2ccccc21 (stereo not given)
IC50 [55]: 24.6 µM
IC50 [56]: 37.9 µM

COc1ccc(CSc2nccc(OCC(=O)N3CCN(c4ccc(C)cc4)CC3)n2)cc1
inhibition [29]: 70.3%
inhibition [30]: 85.8%
inhibition [31]: 0.5%
inhibition [32]: 15.6%
IC50 [33]: 46.9 µM
inhibition [34]: 29.8%

O=C1N[C@H](C2CC2)[C@@H](C(=O)N2CCC(N3CCCCC3)CC2)c2ccc(F)cc21
IC50 [41]: 4.3 µM
IC50 [46]: 22 µM

O=C1CCc2cc(-c3ccccc3F)ccc2C2(CCCCC2)N1
IC50 [57]: 3.94 µM
IC50 [41]: 0.0305 µM
IC50 [58]: 4.25 µM
IC50 [59]: 2.01 µM
IC50 [60]: 3.67 µM
